Read-outs that look alike come from different tables or passages of the source.
Assay: Phase 1 clinical trial: plasma pharmacokinetics
Assay type: in vivo, human
Details: for Tmax / half-life / Cmax / AUC / AUC(0-t): human, plasma, oral; for half-life: read-out: Effective T1/2 (converted); for AUC: tau = 24 hours
Experimental: Summary statistics based on preliminary data were obtained for the pharmacokinetics of Compound 1 in patients receiving once-daily doses ranging from 20 mg to 240 mg (Table 5). The mean plasma concentration-time curves of Compound 1 in the once-daily dose groups ranging from 20 mg to 240 mg are shown in Figure 11. In this study, one cycle consists of 28 days, and Cycle 1 Day 1 refers to Day 1 of the first cycle. […] Accumulation was observed after repeated administration. […] Based on these accumulation ratios, the half-life of Compound 1 was estimated to be approximately 4 days. Based on the currently available data, plasma concentrations are considered to have reached steady state by Day 15.
Summary statistics based on preliminary data were obtained for the pharmacokinetics of Compound 1 in patients in the 20 mg QD, 40 mg QD, 80 mg QD, 120 mg QD, 180 mg QD, 240 mg QD, 360 mg QD, and 480 mg daily (240 mg BID) dose groups (Table 6). The mean plasma concentration-time curves of Compound 1 in the 20 mg QD to 480 mg daily (240 mg BID) dose groups are shown in Figure 12 (in Figure 12, Compound 1 is denoted as "DSP-0390"). In this study, one cycle consists of 28 days, and Cycle 1 Day 1 refers to Day 1 of the first cycle. […] The median Tmax ranged from 2 to 8 hours. Accumulation was observed after repeated administration, and assuming linearity based on the observed accumulation ratios, the estimated elimination half-life was considered to be on the order of several days (approximately 1 to 6 days) (data cut-off: March 2024).

[1] = 480 mg (240 mg BID), cut-off March 2024

CC1(C)Oc2cc(Cl)ccc2[C@@H]2OCC3(CCN(CCn4ccnc4)CC3)C[C@H]21 [Compound 1, (4'aR,10'bR)-8'-chloro-1-[2-(1H-imidazol-1-yl)ethyl]-5',5'-dimethyl-4'a,10'b-dihydro-2'H,4'H,5'H-spiro[piperidine-4,3'-pyrano[3,2-c][1]benzopyran] diphosphate]
AR AUC (accumulation ratio) (20 mg QD, cut-off March 2024): 7.31
AR Cmax (accumulation ratio) (20 mg QD, cut-off March 2024): 6.52
AR AUC (mean accumulation ratio) (20 mg, QD, cut-off April 2023): 7.4
AR Cmax (mean accumulation ratio) (20 mg, QD, cut-off April 2023): 6.1
AR AUC (accumulation ratio) (40 mg QD, cut-off March 2024): 8.93
AR Cmax (accumulation ratio) (40 mg QD, cut-off March 2024): 6.04
AR AUC (mean accumulation ratio) (40 mg, QD, cut-off April 2023): 8.6
AR Cmax (mean accumulation ratio) (40 mg, QD, cut-off April 2023): 6.2
AR AUC (accumulation ratio) (80 mg QD, cut-off March 2024): 4.47
AR Cmax (accumulation ratio) (80 mg QD, cut-off March 2024): 3.70
AR AUC (mean accumulation ratio) (80 mg, QD, cut-off April 2023): 6.9
AR Cmax (mean accumulation ratio) (80 mg, QD, cut-off April 2023): 5.8
AR AUC (accumulation ratio) (120 mg QD, cut-off March 2024): 4.52
AR Cmax (accumulation ratio) (120 mg QD, cut-off March 2024): 3.53
AR AUC (mean accumulation ratio) (120 mg, QD, cut-off April 2023): 5.3
AR Cmax (mean accumulation ratio) (120 mg, QD, cut-off April 2023): 4.6
AR AUC (accumulation ratio) (180 mg QD, cut-off March 2024): 3.55
AR Cmax (accumulation ratio) (180 mg QD, cut-off March 2024): 1.89
AR AUC (mean accumulation ratio) (180 mg, QD, N=1, cut-off April 2023): 3.9
AR Cmax (mean accumulation ratio) (180 mg, QD, cut-off April 2023): 2
AR AUC (accumulation ratio) (240 mg QD, cut-off March 2024): 3.29
AR Cmax (accumulation ratio) (240 mg QD, cut-off March 2024): 1.79
AR AUC (mean accumulation ratio) (240 mg, QD, N=1, cut-off April 2023): 3.9
AR Cmax (mean accumulation ratio) (240 mg, QD, cut-off April 2023): 2.6
AR AUC (accumulation ratio) (360 mg QD, cut-off March 2024): 2.07
AR Cmax (accumulation ratio) (360 mg QD, cut-off March 2024): 1.36
AR AUC (accumulation ratio) [1]: 1.61
AR Cmax (accumulation ratio) [1]: 2.42
half-life estimated from accumulation ratios (cut-off April 2023): approximately 4 days
Tmax (20 mg QD to 480 mg daily (240 mg BID), cut-off March 2024, read-out: median Tmax, range over dose groups): 2 to 8 h
half-life (20 mg, 20 mg QD, cut-off March 2024): 113 h
Cmax (20 mg, Cycle 1, Day 1, 20 mg QD, cut-off March 2024, read-out: Cmax): 4.28 ng/mL
Tmax (20 mg, Cycle 1, Day 1, 20 mg QD, cut-off March 2024, read-out: Tmax [a] median value): 6 h
AUC (20 mg, Cycle 1, Day 1, 20 mg QD, cut-off March 2024, read-out: AUCtau [b]): 76.6 ng·h/mL
AUC(0-t) (20 mg, Cycle 1 Day 1, 20 mg, QD, cut-off April 2023, read-out: AUC0-24 (geometric mean)): 76 ng·h/mL
AUC(0-t) (20 mg, Cycle 1 Day 1, 20 mg, QD, cut-off April 2023, read-out: AUC0-24 (mean)): 77 ng·h/mL
AUC(0-t) (20 mg, Cycle 1 Day 1, 20 mg, QD, cut-off April 2023, read-out: AUC0-24 (median)): 77 ng·h/mL
Cmax (20 mg, Cycle 1 Day 1, 20 mg, QD, cut-off April 2023, read-out: Cmax (geometric mean)): 4 ng/mL
Cmax (20 mg, Cycle 1 Day 1, 20 mg, QD, cut-off April 2023, read-out: Cmax (mean)): 4 ng/mL
Cmax (20 mg, Cycle 1 Day 1, 20 mg, QD, cut-off April 2023, read-out: Cmax (median)): 4 ng/mL
Tmax (20 mg, Cycle 1 Day 1, 20 mg, QD, cut-off April 2023, read-out: Tmax (mean)): 6 h
Tmax (20 mg, Cycle 1 Day 1, 20 mg, QD, cut-off April 2023, read-out: Tmax (median)): 6 h
Cmax (20 mg, Cycle 2, Day 1, 20 mg QD, cut-off March 2024, read-out: Cmax,ss): 27.9 ng/mL
Tmax (20 mg, Cycle 2, Day 1, 20 mg QD, cut-off March 2024, read-out: Tmax,ss [a] median value): 7 h
AUC (20 mg, Cycle 2, Day 1, 20 mg QD, cut-off March 2024, read-out: AUCtau,ss [b]): 560 ng·h/mL
AUC(0-t) (20 mg, Cycle 2 Day 1, 20 mg, QD, cut-off April 2023, read-out: AUC0-24 (geometric mean)): 557 ng·h/mL
AUC(0-t) (20 mg, Cycle 2 Day 1, 20 mg, QD, cut-off April 2023, read-out: AUC0-24 (mean)): 561 ng·h/mL
AUC(0-t) (20 mg, Cycle 2 Day 1, 20 mg, QD, cut-off April 2023, read-out: AUC0-24 (median)): 561 ng·h/mL
Cmax (20 mg, Cycle 2 Day 1, 20 mg, QD, cut-off April 2023, read-out: Cmax (geometric mean)): 28 ng/mL
Cmax (20 mg, Cycle 2 Day 1, 20 mg, QD, cut-off April 2023, read-out: Cmax (mean)): 28 ng/mL
Cmax (20 mg, Cycle 2 Day 1, 20 mg, QD, cut-off April 2023, read-out: Cmax (median)): 28 ng/mL
Tmax (20 mg, Cycle 2 Day 1, 20 mg, QD, cut-off April 2023, read-out: Tmax (mean)): 7 h
Tmax (20 mg, Cycle 2 Day 1, 20 mg, QD, cut-off April 2023, read-out: Tmax (median)): 7 h
half-life (40 mg, 40 mg QD, cut-off March 2024): 139 h
Cmax (40 mg, Cycle 1, Day 1, 40 mg QD, cut-off March 2024, read-out: Cmax): 9.87 ng/mL
Tmax (40 mg, Cycle 1, Day 1, 40 mg QD, cut-off March 2024, read-out: Tmax [a] median value): 8 h
AUC (40 mg, Cycle 1, Day 1, 40 mg QD, cut-off March 2024, read-out: AUCtau [b]): 131 ng·h/mL
AUC(0-t) (40 mg, Cycle 1 Day 1, 40 mg, QD, cut-off April 2023, read-out: AUC0-24 (geometric mean)): 123 ng·h/mL
AUC(0-t) (40 mg, Cycle 1 Day 1, 40 mg, QD, cut-off April 2023, read-out: AUC0-24 (mean)): 132 ng·h/mL
AUC(0-t) (40 mg, Cycle 1 Day 1, 40 mg, QD, cut-off April 2023, read-out: AUC0-24 (median)): 107 ng·h/mL
Cmax (40 mg, Cycle 1 Day 1, 40 mg, QD, cut-off April 2023, read-out: Cmax (geometric mean)): 8 ng/mL
Cmax (40 mg, Cycle 1 Day 1, 40 mg, QD, cut-off April 2023, read-out: Cmax (mean)): 10 ng/mL
Cmax (40 mg, Cycle 1 Day 1, 40 mg, QD, cut-off April 2023, read-out: Cmax (median)): 7 ng/mL
Tmax (40 mg, Cycle 1 Day 1, 40 mg, QD, cut-off April 2023, read-out: Tmax (mean)): 11 h
Tmax (40 mg, Cycle 1 Day 1, 40 mg, QD, cut-off April 2023, read-out: Tmax (median)): 8 h
Cmax (40 mg, Cycle 2, Day 1, 40 mg QD, cut-off March 2024, read-out: Cmax,ss): 59.6 ng/mL
Tmax (40 mg, Cycle 2, Day 1, 40 mg QD, cut-off March 2024, read-out: Tmax,ss [a] median value): 4 h
AUC (40 mg, Cycle 2, Day 1, 40 mg QD, cut-off March 2024, read-out: AUCtau,ss [b]): 1170 ng·h/mL
AUC(0-t) (40 mg, Cycle 2 Day 1, 40 mg, QD, cut-off April 2023, read-out: AUC0-24 (geometric mean)): 1110 ng·h/mL
AUC(0-t) (40 mg, Cycle 2 Day 1, 40 mg, QD, cut-off April 2023, read-out: AUC0-24 (mean)): 1180 ng·h/mL
AUC(0-t) (40 mg, Cycle 2 Day 1, 40 mg, QD, cut-off April 2023, read-out: AUC0-24 (median)): 1370 ng·h/mL
Cmax (40 mg, Cycle 2 Day 1, 40 mg, QD, cut-off April 2023, read-out: Cmax (geometric mean)): 56 ng/mL
Cmax (40 mg, Cycle 2 Day 1, 40 mg, QD, cut-off April 2023, read-out: Cmax (mean)): 60 ng/mL
Cmax (40 mg, Cycle 2 Day 1, 40 mg, QD, cut-off April 2023, read-out: Cmax (median)): 72 ng/mL
Tmax (40 mg, Cycle 2 Day 1, 40 mg, QD, cut-off April 2023, read-out: Tmax (mean)): 5 h
Tmax (40 mg, Cycle 2 Day 1, 40 mg, QD, cut-off April 2023, read-out: Tmax (median)): 4 h
half-life (80 mg, 80 mg QD, cut-off March 2024): 64.8 h
Cmax (80 mg, Cycle 1, Day 1, 80 mg QD, cut-off March 2024, read-out: Cmax): 17.1 ng/mL
Tmax (80 mg, Cycle 1, Day 1, 80 mg QD, cut-off March 2024, read-out: Tmax [a] median value): 8 h
AUC (80 mg, Cycle 1, Day 1, 80 mg QD, cut-off March 2024, read-out: AUCtau [b]): 264 ng·h/mL
AUC(0-t) (80 mg, Cycle 1 Day 1, 80 mg, QD, cut-off April 2023, read-out: AUC0-24 (geometric mean)): 203 ng·h/mL
AUC(0-t) (80 mg, Cycle 1 Day 1, 80 mg, QD, cut-off April 2023, read-out: AUC0-24 (mean)): 268 ng·h/mL
AUC(0-t) (80 mg, Cycle 1 Day 1, 80 mg, QD, cut-off April 2023, read-out: AUC0-24 (median)): 205 ng·h/mL
Cmax (80 mg, Cycle 1 Day 1, 80 mg, QD, cut-off April 2023, read-out: Cmax (geometric mean)): 13 ng/mL
Cmax (80 mg, Cycle 1 Day 1, 80 mg, QD, cut-off April 2023, read-out: Cmax (mean)): 17 ng/mL
Cmax (80 mg, Cycle 1 Day 1, 80 mg, QD, cut-off April 2023, read-out: Cmax (median)): 15 ng/mL
Tmax (80 mg, Cycle 1 Day 1, 80 mg, QD, cut-off April 2023, read-out: Tmax (mean)): 8 h
Tmax (80 mg, Cycle 1 Day 1, 80 mg, QD, cut-off April 2023, read-out: Tmax (median)): 8 h
Cmax (80 mg, Cycle 2, Day 1, 80 mg QD, cut-off March 2024, read-out: Cmax,ss): 63.2 ng/mL
Tmax (80 mg, Cycle 2, Day 1, 80 mg QD, cut-off March 2024, read-out: Tmax,ss [a] median value): 8 h
AUC (80 mg, Cycle 2, Day 1, 80 mg QD, cut-off March 2024, read-out: AUCtau,ss [b]): 1180 ng·h/mL
AUC(0-t) (80 mg, Cycle 2 Day 1, 80 mg, QD, cut-off April 2023, read-out: AUC0-24 (geometric mean)): 1100 ng·h/mL
AUC(0-t) (80 mg, Cycle 2 Day 1, 80 mg, QD, cut-off April 2023, read-out: AUC0-24 (mean)): 1190 ng·h/mL
AUC(0-t) (80 mg, Cycle 2 Day 1, 80 mg, QD, cut-off April 2023, read-out: AUC0-24 (median)): 1110 ng·h/mL
Cmax (80 mg, Cycle 2 Day 1, 80 mg, QD, cut-off April 2023, read-out: Cmax (geometric mean)): 58 ng/mL
Cmax (80 mg, Cycle 2 Day 1, 80 mg, QD, cut-off April 2023, read-out: Cmax (mean)): 63 ng/mL

From patent EP4806435A1, “DIHYDROCHROMENE-DERIVATIVE-CONTAINING THERAPEUTIC AGENT FOR CANCER” (Sumitomo Pharma Co., Ltd., priority 2023, dated 2025)
